Test results taken from article PMC5783306 (Nature, 2017).

Columns and labels:
TAX-4 = target: T1, TAX-4 (Caenorhabditis elegans, UniProt Q03611); test: cryo-EM structure at […] Å of cGMP-bound channel; assay type: cell-based
T1 sequence (Q03611 1-733): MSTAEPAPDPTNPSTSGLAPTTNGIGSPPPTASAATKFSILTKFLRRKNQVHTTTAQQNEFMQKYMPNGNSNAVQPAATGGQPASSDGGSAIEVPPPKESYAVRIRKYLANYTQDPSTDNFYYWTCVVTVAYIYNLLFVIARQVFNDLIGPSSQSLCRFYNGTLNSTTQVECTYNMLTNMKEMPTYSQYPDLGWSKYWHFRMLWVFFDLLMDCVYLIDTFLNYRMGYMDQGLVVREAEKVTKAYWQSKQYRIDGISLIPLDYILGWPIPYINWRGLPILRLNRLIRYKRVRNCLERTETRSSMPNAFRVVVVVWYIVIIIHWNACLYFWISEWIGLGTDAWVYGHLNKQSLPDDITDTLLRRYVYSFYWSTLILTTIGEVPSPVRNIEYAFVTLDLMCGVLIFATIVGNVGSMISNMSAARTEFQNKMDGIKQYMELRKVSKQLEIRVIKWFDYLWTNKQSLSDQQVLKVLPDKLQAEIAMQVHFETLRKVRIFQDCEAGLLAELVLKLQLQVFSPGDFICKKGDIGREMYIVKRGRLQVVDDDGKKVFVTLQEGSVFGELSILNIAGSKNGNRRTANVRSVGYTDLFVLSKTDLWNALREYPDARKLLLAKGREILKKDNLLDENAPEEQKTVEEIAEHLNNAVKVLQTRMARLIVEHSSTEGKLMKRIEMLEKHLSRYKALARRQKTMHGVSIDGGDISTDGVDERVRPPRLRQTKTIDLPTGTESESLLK

cryo-EM structure = target: the molecule itself; test: cryo-EM structure

Molecule | EC50 (TAX-4) | stoichiometry N (cryo-EM structure)
Nc1nc2c(ncn2[C@@H]2O[C@@H]3COP(=O)(O)O[C@H]3[C@H]2O)c(=O)[nH]1 [cGMP] | 160 nM | 
TAX-4 (cyclic nucleotide-gated channel CNGA subunit from C. elegans), cGMP-bound (natural protein, UniProt Q03611 1-733, looked up) MSTAEPAPDPTNPSTSGLAPTTNGIGSPPPTASAATKFSILTKFLRRKNQVHTTTAQQNEFMQKYMPNGNSNAVQPAATGGQPASSDGGSAIEVPPPKESYAVRIRKYLANYTQDPSTDNFYYWTCVVTVAYIYNLLFVIARQVFNDLIGPSSQSLCRFYNGTLNSTTQVECTYNMLTNMKEMPTYSQYPDLGWSKYWHFRMLWVFFDLLMDCVYLIDTFLNYRMGYMDQGLVVREAEKVTKAYWQSKQYRIDGISLIPLDYILGWPIPYINWRGLPILRLNRLIRYKRVRNCLERTETRSSMPNAFRVVVVVWYIVIIIHWNACLYFWISEWIGLGTDAWVYGHLNKQSLPDDITDTLLRRYVYSFYWSTLILTTIGEVPSPVRNIEYAFVTLDLMCGVLIFATIVGNVGSMISNMSAARTEFQNKMDGIKQYMELRKVSKQLEIRVIKWFDYLWTNKQSLSDQQVLKVLPDKLQAEIAMQVHFETLRKVRIFQDCEAGLLAELVLKLQLQVFSPGDFICKKGDIGREMYIVKRGRLQVVDDDGKKVFVTLQEGSVFGELSILNIAGSKNGNRRTANVRSVGYTDLFVLSKTDLWNALREYPDARKLLLAKGREILKKDNLLDENAPEEQKTVEEIAEHLNNAVKVLQTRMARLIVEHSSTEGKLMKRIEMLEKHLSRYKALARRQKTMHGVSIDGGDISTDGVDERVRPPRLRQTKTIDLPTGTESESLLK |  | 4
